How the values were obtained:
[1] = target: MCL-1 (Homo sapiens (Human), UniProt Q07820); experiment: Cell free Mcl-1:Bim affinity assay (fluorescence polarization competition); type: binding; conditions: 15 nM MCL-1, 5 nM FITC-Bim, 1 hour at room temperature; class symbols; read-out: BIM_Ki
Procedure: The binding affinity of each compound was measured via a fluorescence polarization competition assay, in which the compound competes for the same binding site with the ligand, and thus leads to a dose-dependent anisotropy reduction. The tracer ligand utilized was a fluorescein isothiocyanate labelled peptide (FITC-[…]) derived from Bim (GenScript).
The assay was carried out in black half-area 96-well NBS plate (Corning), containing 15 nM of MCL-1 (BPS Bioscience), 5 nM of FITC-Bim and 3-fold serial diluted test compounds in a total volume of 50 μL of assay buffer (20 mM HEPES, 50 mM NaCl, 0.002% Tween 20, 1 mM TCEP, and 1% DMSO). The reaction plate was incubated for 1 hour at room temperature. The change of anisotropy is measured with an Envision multimode plate reader (PerkinElmer) at emission wavelength 535 nm. Fluorescence polarization was calculated in mP unit and the percentage inhibition was calculated by % inhibition=100×(mPDMSO−mP)/(mPDMSO−mPPC), in which mPDMSO is the DMSO control, and mPpc is the positive control. IC50 values were determined from a 10-point dose response curve by fitting the percent inhibition against compound concentration using the GraphPad Prism software. The inhibition constant Ki was subsequently calculated according to the Nikolovska-Coleska's equation (Anal. Biochem., 2004, 332, 261),
[formula] • where [I]50 is the concentration of the free inhibitor at 50% inhibition, [L]50 is the concentration of the free labeled ligand at 50% inhibition, [P]0 is the concentration of the free protein at 0% inhibition, and Kd is the dissociation constant of the protein-ligand complex. See Table F. Caspase 3/7 Activity Assay

[2] = test system: H929 cells; experiment: Cell viability assay (H929 10 FBS); type: cell-based; conditions: Homo sapiens, NCI-H929, 24 hours, read-out: H929_10FBS IC50
Procedure: Cell Viability Assay (H929 10 FBS)
Dispense 10 μL aliquot of prepared H929 cells (1:1 ratio of cells:Trypan Blue (#1450013, Bio-Rad)) onto cell counting slide (#145-0011, Bio-Rad) and obtain cell density and cell viability using cell counter (TC20, Bio-Rad). Remove appropriate volume of resuspended cells from culture flask to accommodate 4000 cells/well @ 10 μL/well. Transfer H929 cells to 50 mL conical (#430290, Corning). Spin down at 1000 rpm for 5 min using tabletop centrifuge (SPINCHRON 15, Beckman). Discard supernatant and resuspend cell pellet in modified RPMI 1640 (#10-040-CV, Corning) cell culture media containing 10% FBS (F2422-500 ML, Sigma), sodium pyruvate (100 mM) (#25-000-CL, Corning), HEPES buffer (1 M) (#25-060-CL, Corning) and glucose (200 g/L) (A24940-01, Gibco) to a cell density of 400,000 cells/mL. Dispense 10 μL of resuspended H929 cells per well in 384-well small volume TC treated plate (#784080, Greiner Bio-one) using standard cassette (#50950372, Thermo Scientific) on Multi-drop Combi (#5840310, Thermo Scientific) in laminar flow cabinet. Dispense compounds onto plates using digital liquid dispenser (D300E, Tecan). Incubate plates in humidified tissue culture incubator @ 37° C. for 24 hours. Add 10 μL of prepared CellTiTer-Glo® detection buffer (G7570, Promega) or ATPlite 1 Step detection reagent (#6016731, Perkin Elmer) to each well of 384-well plate using small tube cassette (#24073295, Thermo Scientific) on Combi multi drop, incubate @ RT for 30-60 min. Read plates with microplate reader (PheraStar, BMG Labtech) using 384 well luminescence mode.

Sequence of MCL-1 (Q07820 whole entry): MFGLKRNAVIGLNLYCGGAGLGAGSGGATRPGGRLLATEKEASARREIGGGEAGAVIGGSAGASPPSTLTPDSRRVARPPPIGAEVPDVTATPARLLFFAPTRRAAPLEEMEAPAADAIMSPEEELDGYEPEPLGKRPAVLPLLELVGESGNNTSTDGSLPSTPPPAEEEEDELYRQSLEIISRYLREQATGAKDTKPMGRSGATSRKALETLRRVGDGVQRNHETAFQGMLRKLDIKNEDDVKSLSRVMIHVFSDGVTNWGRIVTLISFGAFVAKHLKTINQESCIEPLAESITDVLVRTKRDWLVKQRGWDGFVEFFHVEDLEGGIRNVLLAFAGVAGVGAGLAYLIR

Structure (SMILES) | Ki [1] | IC50 [2]
CC1(C)OC/C=C/[C@H](OCCN2CC[C@H](F)C2)[C@@H]2CC[C@H]2CN2C[C@@]3(CCCc4cc(Cl)ccc43)COc3ccc(cc32)S(=O)(=O)NC1=O [Example 265, (3R,6R,7S,8E,22S)-6′-Chloro-7-[2-[(3S)-3-fluoropyrrolidin-1-yl]ethoxy]-12,12-dimethyl-15,15-dioxo-spiro[11,20-dioxa-15-thia-1,14-diazatetracyclo[14.7.2.03,6.019,24]pentacosa-8,16,18,24-tetraene-22,1′-tetralin]-13-one] | 1 to 100 nM | < 500 nM
CN(C(=O)O[C@H]1/C=C/CN(C)C(C)(C)C(=O)NS(=O)(=O)c2ccc3c(c2)N(C[C@@H]2CC[C@H]21)C[C@@]1(CCCc2cc(Cl)ccc21)CO3)[C@@H]1CCOC1 [Example 218, [(3R,6R,7S,8E,22S)-6′-Chloro-11,12,12-trimethyl-13,15,15-trioxo-spiro[20-oxa-15-thia-1,11,14-triazatetracyclo[14.7.2.03,6.019,24]pentacosa-8,16,18,24-tetraene-22,1′-tetralin]-7-yl] N-methyl-N-[(3R)-tetrahydrofuran-3-yl]carbamate] | < 1 nM | < 500 nM
CN1C/C=C/[C@H](OC(=O)NCC2CC2)[C@@H]2CC[C@H]2CN2C[C@@]3(CCCc4cc(Cl)ccc43)COc3ccc(cc32)S(=O)(=O)NC(=O)C1(C)C [Example 205, [(3R,6R,7S,8E,22S)-6′-Chloro-11,12,12-trimethyl-13,15,15-trioxo-spiro[20-oxa-15-thia-1,11,14-triazatetracyclo[14.7.2.03,6.019,24]pentacosa-8,16,18,24-tetraene-22,1′-tetralin]-7-yl] N-(cyclopropylmethyl)carbamate] | 1 to 100 nM | < 500 nM
CN(C(=O)O[C@H]1/C=C/COC(C)(C)C(=O)NS(=O)(=O)c2ccc3c(c2)N(C[C@@H]2CC[C@H]21)C[C@@]1(CCOc2cc(Cl)ccc21)CO3)C1CCOCC1 [Example 304, [(3R,6R,7S,8E,22S)-7′-Chloro-12,12-dimethyl-13,15,15-trioxo-spiro[11,20-dioxa-15-thia-1,14-diazatetracyclo[14.7.2.03,6.019,24]pentacosa-8,16,18,24-tetraene-22,4′-chromane]-7-yl] N-methyl-N-tetrahydropyran-4-yl-carbamate] | < 1 nM | < 500 nM
CN(C)C(=O)O[C@@H]1/C=C/CNC(C)(C)C(=O)NS(=O)(=O)c2ccc3c(c2)N(C[C@@H]2CC[C@H]21)C[C@@]1(CCCc2cc(Cl)ccc21)CO3 [Example 198, [(3R,6R,7R,8E,22S)-6′-Chloro-12,12-dimethyl-13,15,15-trioxo-spiro[20-oxa-15-thia-1,11,14-triazatetracyclo[14.7.2.0˜3,6.0˜19,24]pentacosa-8,16,18,24-tetraene-22,1′-tetralin]-7-yl] N,N-dimethylcarbamate] | < 1 nM | < 500 nM
CN1C/C=C/[C@H](OC(=O)N2CCC2)[C@@H]2CC[C@H]2CN2C[C@@]3(CCCc4cc(Cl)ccc43)COc3ccc(cc32)S(=O)(=O)NC(=O)C1(C)C [Example 216, [(3R,6R,7S,8E,22S)-6′-Chloro-11,12,12-trimethyl-13,15,15-trioxo-spiro[20-oxa-15-thia-1,11,14-triazatetracyclo[14.7.2.03,6.019,24]pentacosa-8,16,18,24-tetraene-22,1′-tetralin]-7-yl]azetidine-1-carboxylate] | < 1 nM | < 500 nM
CC1(C)OC/C=C/[C@H](OCCN2CCCCC2)[C@@H]2CC[C@H]2CN2C[C@@]3(CCCc4cc(Cl)ccc43)COc3ccc(cc32)S(=O)(=O)NC1=O [Example 263, (3R,6R,7S,8E,22S)-6′-Chloro-12,12-dimethyl-15,15-dioxo-7-[2-(1-piperidyl)ethoxy]spiro[11,20-dioxa-15-thia-1,14-diazatetracyclo[14.7.2.03,6.019,24]pentacosa-8,16,18,24-tetraene-22,1′-tetralin]-13-one] | < 1 nM | < 500 nM
CC1(C)OC/C=C/[C@H](OCC(=O)N2CC(F)C2)[C@@H]2CC[C@H]2CN2C[C@@]3(CCCc4cc(Cl)ccc43)COc3ccc(cc32)S(=O)(=O)NC1=O [Example 281, (3R,6R,7S,8E,22S)-6′-Chloro-7-[2-(3-fluoroazetidin-1-yl)-2-oxo-ethoxy]-12,12-dimethyl-15,15-dioxo-spiro[11,20-dioxa-15-thia-1,14-diazatetracyclo[14.7.2.03,6.019,24]pentacosa-8,16,18,24-tetraene-22,1′-tetralin]-13-one] | < 1 nM | < 500 nM
CO[C@@H]1CCN(C(=O)O[C@H]2/C=C/COC3(CCC3)C(=O)NS(=O)(=O)c3ccc4c(c3)N(C[C@@H]3CC[C@H]32)C[C@@]2(CCCc3cc(Cl)ccc32)CO4)C1 [Example 229, [(3R,6R,7S,8E,22S)-6′-Chloro-12,12-(1,3-propylene)-13,15,15-trioxo-spiro[11,20-dioxa-15-thia-1,14-diazatetracyclo[14.7.2.03,6.019,24]pentacosa-8,16,18,24-tetraene-22,1′-tetralin]-7-yl] (3S)-3-methoxypyrrolidine-1-carboxylate] | < 1 nM | < 500 nM
CC1(C)OC/C=C/[C@H](OC(=O)N2CCN(CCO)CC2)[C@@H]2CC[C@H]2CN2C[C@@]3(CCCc4cc(Cl)ccc43)COc3ccc(cc32)S(=O)(=O)NC1=O [Example 148, [(3R,6R,7S,8E,22S)-6′-Chloro-12,12-dimethyl-13,15,15-trioxo-spiro[11,20-dioxa-15-thia-1,14-diazatetracyclo[14.7.2.03,6.019,24]pentacosa-8,16,18,24-tetraene-22,1′-tetralin]-7-yl] 4-(2-hydroxyethyl)piperazine-1-carboxylate] | < 1 nM | < 500 nM
CN(C(=O)O[C@H]1/C=C/COC(C)(C)C(=O)NS(=O)(=O)c2ccc3c(c2)N(C[C@@H]2CC[C@H]21)C[C@@]1(CCOc2cc(Cl)ccc21)CO3)C1COC1 [Example 303, [(3R,6R,7S,8E,22S)-7′-Chloro-12,12-dimethyl-13,15,15-trioxo-spiro[11,20-dioxa-15-thia-1,14-diazatetracyclo[14.7.2.03,6.019,24]pentacosa-8,16,18,24-tetraene-22,4′-chromane]-7-yl] N-methyl-N-(oxetan-3-yl)carbamate] | < 1 nM | < 500 nM
CN(C)C(=O)O[C@H]1/C=C/COC(C)(C)C(=O)NS(=O)(=O)c2ccc3c(c2)N(C[C@@H]2CC[C@H]21)C[C@@]1(CCOc2cc(Cl)ccc21)CO3 [Example 247, [(3R,6R,7S,8E,22S)-7′-Chloro-12,12-dimethyl-135,5-trioxo-spiro[11,20-dioxa-15-thia-1,14-diazatetracyclo[14.7.2.03,6.019,24]pentacosa-8,16,18,24-tetraene-22,4′-chromane]-7-yl] N,N-dimethylcarbamate] | < 1 nM | < 500 nM
CO[C@@H]1/C=C/CN(C)[C@@H](C2CC2)C(=O)NS(=O)(=O)c2ccc3c(c2)N(C[C@@H]2CC[C@H]21)C[C@@]1(CCCc2cc(Cl)ccc21)CO3 [Example 127, (3R,6R,7R,8E,12S,22S)-6′-Chloro-12-cyclopropyl-7-methoxy-11-methyl-15,15-dioxo-spiro[20-oxa-15-thia-1,11,14-triazatetracyclo[14.7.2.0˜3,6.0˜19,24]pentacosa-8,16,18,24-tetraene-22,1′-tetralin]-13-one] | 1 to 100 nM | < 1000 nM
CO[C@@H]1/C=C/C[C@H](C)[C@@H](CC(=O)N2CCOCC2)C(=O)NS(=O)(=O)c2ccc3c(c2)N(C[C@@H]2CC[C@H]21)C[C@@]1(CCCc2cc(Cl)ccc21)CO3 [Example 92, (3R,6R,7R,8E,11S,12R,22S)-6′-Chloro-7-methoxy-11-methyl-12-(2-morpholino-2-oxo-ethyl)-15,15-dioxo-spiro[20-oxa-15-thia-1,14-diazatetracyclo[14.7.2.03,6.019,24]pentacosa-8,16,18,24-tetraene-22,1′-tetralin]-13-one] | < 1 nM | < 1000 nM

From patent US11130769B2 (Prelude Therapeutics Incorporated, priority 2018, dated 2021)
